This assay deals with P. falciparum 3D7 growth, pLDH absorbance. Kind of assay: blood-stage malaria parasite growth potency – strain 3D7, dose response (AID 2305).
In the case of `CO/C(=C\C=C\c1cc2cc(Cl)c(Cl)cc2[nH]1)C(=O)NCCCN1CCC(c2ccccc2)CC1`, the IC50 worked out at 0.91 µM.
As for `CC1CCN(C(=O)[C@H](Cc2c[nH]c3ccccc23)NS(=O)(=O)c2ccc(Cl)cc2)CC1`, the IC50 worked out at 0.67 µM.
Turning to `Cc1[nH]c(C)c(-c2ccc(-c3ccc(OC(F)(F)F)cc3)nc2)c(=O)c1Cl`, the IC50 was found to be 0.2 µM.
Regarding `O=C(Nc1ccc(Cn2ncc(N3CCNCC3)c(Cl)c2=O)cc1)Nc1ccc(-c2ccccc2)cc1`, the IC50 stood at 0.59 µM.
Consider `Cc1cc(NC2CCCC2)nc(Nc2ccccc2)n1`, for which the IC50 was found to be 0.99 µM.
In the case of `COc1ccccc1Nc1nc(NC2CCN(C)CC2)cc(-c2cccc(C(F)(F)F)c2)n1` it was 0.92 µM; in that of `CCOC(=O)NC1=NC(C)(C)N(OCCCOc2cc(Cl)c(Cl)cc2Cl)C(NC(=O)OCC)=N1`, 0.03 µM.
To `O=C(Nc1ccc(-c2ccccc2)cc1)Nc1cccc(Cn2nc(Cl)c(N3CCNCC3)cc2=O)c1` belongs 0.37 µM; to `N#Cc1ccc2c(c1)CCN(CCC1CCC(NC(=O)Nc3cnc4ccccc4c3)CC1)C2` (configuration not stated), 0.77 µM; to `CCOC(=O)c1cc(C(=O)NCCCCN2CCC(c3ccc(CC)cc3OCC)CC2)ccc1-c1ccc(C(F)(F)F)cc1`, 0.61 µM.
With `CC(Cl)=CCc1c(C)[nH]c2c(ccc3ccccc32)c1=O`, the IC50 amounted to 0.2 µM.
`COc1cc2nc(N3CCC(CNC(=O)c4cc(Br)c(Br)s4)CC3)nc(N)c2cc1OC` displayed an IC50 of 0.71 µM.
In the case of `OCCNc1nc(Nc2cccc(O)c2)nc2ccccc12` it was 0.39 µM.
For the compound `O=C(NCCCCN1CCC(c2c[nH]c3ccccc23)CC1)c1ccc(-c2ccc(C(F)(F)F)cc2)cc1`, the IC50 was 0.8 µM.
`COc1ccc(NC(=O)Nc2ccc(-c3ccccc3)cc2)cc1Cn1cnc(N2CCCNCC2)cc1=O` registered an IC50 of 0.76 µM.
To `CC(C)COc1ccc(Cl)cc1Cc1nc(-c2nc3ccc(CN4CCCCC4)cc3[nH]2)co1` belongs 0.74 µM; to `CN1CCC(Oc2ccc(Nc3nccc(NCC(O)c4ccccc4)n3)cc2Cl)CC1` (configuration not stated), 0.79 µM; to `C=CCOC(=O)N1CCC(CNCc2cccc(-c3ccc(-c4nc5c(C)cccc5[nH]4)cc3)c2)C1` (configuration not stated), 0.25 µM.
To `CCC(CC)C(CC(=O)NC(C)(C)CCc1ccccc1OC)Nc1ccc(C#N)c2ccccc12` (configuration not stated) belongs 0.8 µM; to `Oc1ccc(CCNCCCCNCCc2ccc(Cl)cc2)cc1O`, 0.84 µM.
In the case of `COc1ccc(S(=O)(=O)NC2CCN(c3ccnc4cc(Cl)ccc34)C2)cc1` (configuration not stated) it was 0.49 µM; in that of `N#Cc1cccc(Nc2ncc3c(-c4cccc(NC(=O)Cc5cccc(Cl)c5)c4)c[nH]c3n2)c1`, 0.42 µM; in that of `Clc1ccc(-c2ncc(-c3ccncc3)[nH]2)cc1Cl`, 1.06 µM.
With `Cc1ccc2c(c1)c(-c1ccccc1)c(-c1ccccc1)n2CC(O)CN1CCN(CC=Cc2ccccc2)CC1` (configuration not stated), the IC50 came out at 0.78 µM.
To `C[C@@H](NCCc1cccc(Cl)c1)[C@@H](O)c1ccc(OCCCCCCOc2ccc([C@H](O)[C@@H](C)NCCc3cccc(Cl)c3)cc2)cc1` belongs 0.4 µM; to `Fc1ccc2nc(-c3cccc(-c4cccc(CN5CCN(c6ccncc6)CC5)c4)c3)[nH]c2c1`, 0.15 µM.
In the case of `N=c1n(CCN2CCCCC2)c2ccccc2n1CC(O)c1ccc(Cl)c(Cl)c1` (configuration not stated) it was 0.32 µM; in that of `CCC(C)(C)c1ccc(OCC(O)CN2CCCCC2)c(C(C)(C)CC)c1` (configuration not stated), 1.3 µM.
`COc1nc2c(CCN3CCC(NCc4ccc5c(c4)NCCO5)CC3)c(Cl)cnc2cc1F`: the IC50 stood at 0.18 µM. Against the preceding compound, the IC50 is about 7.2-fold lower.
In the case of `c1csc(-c2nc(NCC3CCCO3)ncc2-c2ccsc2)n1` (configuration not stated) it was 0.49 µM; in that of `O=C(Nc1ccc(OC2CCN(Cc3ccc(F)cc3)C2)c(Cl)c1)c1ccccc1` (configuration not stated), 0.79 µM; in that of `ON=C1CCc2cc(-c3cc(-c4ccc(OC5CCNCC5)cc4)oc3-c3ccncc3)ccc21`, 0.16 µM.
To `CN(C)C(=O)c1ccc(CN(Cc2ccc3c(c2)OCCO3)Cc2ccc3c(c2)OCO3)cc1` belongs 0.18 µM; to `CN1CCC(N(Cc2ccc(-c3cnc(NCc4ccccc4)nc3)cc2)S(=O)(=O)c2ccccc2)CC1`, 0.78 µM; to `CS(=O)(=O)Nc1ccc(-c2cnc3[nH]cc(-c4ccc(C(=O)O)cc4)c3c2)cc1`, 0.8 µM.
For `CCOC(=O)c1[nH]c(-c2cccc(F)c2)nc1N`, the IC50 worked out at 0.75 µM.
Consider `Cc1onc(-c2ccccc2)c1C(=O)Nc1nc(-c2ccccn2)nc2ccsc12`, for which the IC50 was 0.69 µM.
Compound `CC(=O)Nc1ccc(CCNC(C)Cc2ccc(C(=O)Nc3ccc(CC(C)NCCc4cccc(Cl)c4)cc3)cc2)cc1` (configuration not stated) showed an IC50 of 0.33 µM.
To `CCN1CCCC1CN(Cc1ccc(-c2ccc(C(F)(F)F)cc2)cc1)C(=O)Cn1c(CCc2cccc(F)c2F)nc(=O)c2ccccc21` (configuration not stated) belongs 1.59 µM; to `O=C(NCCCCCN1CCC(c2c[nH]c3ccccc23)CC1)Nc1cccc(C(F)(F)F)c1`, 1 µM.
In the case of `CC(Oc1ccc(NC(=O)c2cccs2)cc1)C(=O)c1ccc(Cl)cc1` (configuration not stated) it was 0.77 µM; in that of `Fc1ccc2c(NN=Cc3ccc(Cl)cc3)ccnc2c1`, 0.75 µM.
In the case of `O=C(N[C@@H](CC1CCCCC1)C(=O)NCCN1CCCCC1)c1ccc(O)c(-c2ccc(Cl)c(Cl)c2)c1` it was 0.15 µM; in that of `O=C(NCc1cccc(C(F)(F)F)c1)C1CCCN(C(=O)c2ccc(O)c(-c3ccc(Cl)c(Cl)c3)c2)C1` (configuration not stated), 0.8 µM.
Compound `CCOC(=O)c1ccc(N(CCCN(CCCN(c2ccc(C(=O)OCC)cc2)S(=O)(=O)c2ccc(C)cc2)CCc2ccc(O)cc2)S(=O)(=O)c2ccc(C)cc2)cc1` showed an IC50 of 1.05 µM.
In turn, `CCc1c[nH]c2c(N3CCCCC3=O)cc(C(=O)N[C@@H](Cc3ccccc3)[C@H](O)CNCc3cccc(OC)c3)cc12` had an IC50 of 0.17 µM.
In the case of `CC1CCC2(CC1)N=C(N)N=C(N)N2OCc1cc2ccccc2c2ccccc12` (configuration not stated) it was 0.24 µM; in that of `O=C(/C=C/c1ccc(Cl)c(Cl)c1)NCCCCCN1CCC(NC(=O)Nc2ccc(Cl)c(C(F)(F)F)c2)CC1`, 0.65 µM.
In the case of `CN(C)CCC(=O)c1ccccc1` it was 0.33 µM; in that of `COc1ccc(CC(=O)NC2CCN(c3ccnc4cc(Cl)ccc34)C2)cc1` (configuration not stated), 0.24 µM; in that of `O=C(COc1ccccc1)NC1CCN(c2ccnc3cc(Cl)ccc23)C1` (configuration not stated), 0.7 µM.
`CCNc1cc(CCCC(=O)OCC)nc(Nc2ccc(C)cc2)n1` showed an IC50 of 0.77 µM.
In turn, `CN(C(=O)NCCc1ccccc1)C1CCN(CCCCCNC(=O)/C=C/c2ccc(Cl)c(Cl)c2)CC1` registered an IC50 of 0.68 µM.
To `CO/C(=C\C=C\c1cc2cc(Cl)c(Cl)cc2[nH]1)C(=O)NCCCN1CCN(C2CCCCC2)CC1` belongs 1.01 µM.
`COc1ccc(Nc2nc(NC3CCCC3)cc(-c3ccc(OC)cc3)n2)cc1` showed an IC50 of 1.03 µM.
In the case of `CC(=O)Nc1nc(-c2ccccc2)[nH]c1C(N)=O` it was 0.25 µM.
To `O=C1NC(c2ccc(N3CCCCCC3)cc2)Nc2ccccc21` (configuration not stated) belongs 0.57 µM.
Compound `Cc1ccc(Cc2cnc(NCCSCc3ccc(CN4CCOCC4)o3)[nH]c2=O)cn1` came in with an IC50 of 1.07 µM.
`COc1ccc(Nc2nc(NCc3cccnc3)cc(-c3ccc(OC)cc3)n2)cc1` yielded an IC50 of 1.4 µM.
In the case of `N#Cc1ccc2[nH]cc(C(=O)CCCCCN(Cc3ccccc3)Cc3ccccc3)c2c1` it was 0.79 µM; in that of `CC(=O)Nc1ccc(NC(=O)c2cc(-c3cc(Cl)ccc3O)n[nH]2)cc1`, 0.18 µM.
Turning to `CC[C@H]1CN2CC[C@@H]1C[C@H]2[C@H](O)c1cc(N2CCC(O)(c3ccccc3)CC2)nc2ccc(OC)cc12`, the IC50 came out at 0.09 µM.
To `O=S1(=O)NC2(CCN(CCc3ccc(Cl)cc3)CC2)Nc2cc(F)cc(F)c21` belongs 1.46 µM.
In the case of `COc1ccc2c(NN=Cc3ccc(OC)c4ccccc34)cc(C)nc2c1` it was 0.6 µM; in that of `OCC1CCN(Cc2ccc(-c3cccc(-c4nc5ccccc5[nH]4)c3)cc2)CC1`, 0.81 µM.
To `Cc1cccc2[nH]c(-c3ccc(-c4ccc(NC(=O)CN5CCN(C)CC5)cc4)s3)nc12` belongs 1.02 µM.
`COC(=O)c1ccc(CC(C)NCC(O)c2ccc(F)c(Cl)c2)cc1` (configuration not stated) came in with an IC50 of 0.86 µM.
To `Cc1cc(OCC2CCN(c3ncc(C(=O)Nc4ccccc4)cc3Cl)CC2)ccc1F` belongs 0.9 µM.
`O=C(CCC1CCCC1)N(Cc1ccc(-c2ccc(CNCCc3ccccn3)cc2)cc1)CC1CCCCN1` (configuration not stated) had an IC50 of 1.15 µM.
To `FC(F)(F)c1ccc2c(NN=Cc3cccc(Cl)c3)ccnc2c1` belongs 0.84 µM; to `CS(=O)(=O)c1cccc(-c2cnc3[nH]cc(-c4cccc(CCN)c4)c3c2)c1`, 1.56 µM; to `COc1ccc(C(=O)CCC(=O)N(CCC2CCCN2C)Cc2ccc(-c3ccc(CNCCc4ccc(S(C)(=O)=O)cc4)cn3)cc2)cc1F` (configuration not stated), 0.87 µM.
To `COc1ccc(NC(=O)c2ccc3cc4ccccc4cc3c2)cc1N1CCN(C)CC1` belongs 1.03 µM.
For `COc1ccccc1-c1cccc(CNC2CCN(CC3Cn4c(=O)ccc5ccc(F)c3c54)CC2)c1` (configuration not stated), the IC50 was determined as 1.38 µM.
`O=S(=O)(NCCN1CCCC1)c1cccc(-c2cccc(CNCCc3cccs3)c2)c1` gave an IC50 of 0.75 µM.
To `COc1ccc(O)c(C(=O)NCCc2ccc(OC)c(-c3ccc(C(C)(C)C)cc3)c2)c1` belongs 1.03 µM; to `Cn1nc2ccc3ccccc3c2nc1=N`, 0.77 µM.
The compound `Cc1nc(N)nc(N)c1OCCCCOc1ccccc1` yielded an IC50 of 0.05 µM.
In the case of `CC(C)(C)c1ccc(CN2CCC(NC(=O)c3ccc(-c4ccccc4Cl)s3)CC2)cc1`, the IC50 came out at 1.35 µM.
In the case of `CCCc1cn2c3c(cc(C(=O)N[C@@H](Cc4ccccc4)[C@H](O)CNC4CCCCC4)cc13)N(CC)S(=O)(=O)CC2` it was 0.08 µM.
In turn, `Cc1ccc(NC(=O)c2cc([N+](=O)[O-])ccc2NCc2cccnc2)cc1Cl` displayed an IC50 of 1.12 µM.
Turning to `O=S(=O)(c1cccc(F)c1)c1ccc(Nc2ncnc3cc(Br)sc23)cc1Cl`, the IC50 amounted to 1.03 µM.
In the case of `CCn1ncc2c(NC3CCOCC3)c(CNC(=O)c3ccnn3C)c(C)nc21` it was 0.53 µM; in that of `CN(Cc1ccc(-c2ccc(C(F)(F)F)cc2)cc1)C(=O)Cn1c(CCc2cccc(F)c2F)cc(=O)c2ccc(OCC3CCCN3C)cc21` (configuration not stated), 1.07 µM.
In the case of `c1ccc(COc2ccnc(NCCCOc3cccc(CN4CCCCC4)c3)c2)cc1` it was 0.99 µM.
`CCCN=CNc1cc(-c2csc(N=C(N)N)n2)cc([N+](=O)[O-])c1` yielded an IC50 of 1.74 µM.
In the case of `CCNC(=O)CCc1cccc(Br)c1`, the IC50 was 0.53 µM. Compared with the last compound, the IC50 is about 3.3-fold lower.

The term IC50 denotes the concentration at which inhibition is half-maximal. Low values mean higher potency, high ones lower potency.
